Source: ChEMBL document CHEMBL3232707, “Total synthesis of the lipid mediator PD1n-3 DPA: configurational assignments and anti-inflammatory and pro-resolving actions” (J Nat Prod, 2014)
The source made the active and inactive calls.

Key:
Mus musculus [1] = assay: Antiinflammatory activity in mouse assessed as reduction of zymosan-induced number of neutrophils recovered from peritoneal exudates at 10 ng, iv administered 5 mins before zymosan challenge measured after 4 hrs by light microscopy/flow cytometry; assay type: functional, organism-based
Macrophage [2] = assay: Pro-resolving activity in human macrophages assessed as increase of phagocytosis of fluorescence-labeled yeast cell wall particles at 100 nM to 10 pM preincubated for 15 mins measured after 60 mins; assay type: functional, cell-based
Macrophage [3] = assay: Pro-resolving activity in human macrophages assessed as increase of phagocytosis of bisbenzimide-labeled apoptotic neutrophils at 100 nM to 10 pM preincubated for 15 mins measured after 60 mins; assay type: functional, cell-based
Mus musculus [4] = assay: Antiinflammatory activity in mouse assessed as reduction of zymosan-induced neutrophil recruitment during peritonitis at 10 ng, iv administered 5 mins before zymosan challenge measured after 4 hrs by light microscopy/flow cytometry; assay type: functional, organism-based

Measured: Activity

CC/C=C\C[C@H](O)\C=C/C=C/C=C/[C@H](O)C/C=C\C/C=C\CCC(=O)O
active: all assays above

CC/C=C\C[C@H](O)\C=C/C=C/C=C/[C@H](O)C/C=C\CCCCCC(=O)O
active: all assays above
